Tested on: BALB/c mice
Assay: Splenocyte restimulation with M72 and intracellular cytokine staining of CD4/CD8 T cells after vaccination
Assay type: in vivo, mouse
Conditions: 0.125 μg antigen plus 2, 10, or 50 nmol liposomal adjuvant, i.m. two times, spleens 5 days post-secondary
Experimental: Animal studies were carried out in an OLAW and AAALAC accredited vivarium in accordance with University of Montana's IACUC guidelines for the care and use of laboratory animals. Groups of 10–14 BALB/c mice were vaccinated intramuscularly with 0.125 μg M72 antigen and indicated concentrations of various CLR adjuvant candidates (liposomal formulations) in 50 μl total volume per injection. After 14 days, blood and serum samples were collected and a secondary vaccination was administered. At day 19 (5 days post-secondary vaccination), 3–6 mice per group were euthanized and spleens were harvested the assessment of cell-mediated immunity. At day 28 (14 days post booster vaccination) the remaining 7 mice in each group were euthanized and blood was collected for the measurement of M72 specific humoral immunity.
Spleens were harvested from vaccinated mice 5 days after secondary injections and splenocytes were harvested by disruption of the spleens through a 100 μm filter. Red blood cells were lysed by incubation with red blood cell lysis buffer (Sigma) for 5 min followed by washing in 1x PBS. Cells were plated in a 96 well plate at 5 × 10^6 cells/well in 200 μL complete RPMI1640 media. Cells were incubated with 1 μg/mL M72 antigen for […] at 37°C. After 7 h, GolgiPlug (Brefeldin A, BD Biosciences) was added to each well and incubated at 37°C for a further 12 h. Following incubation, cells were stained with the cell surface antibodies against CD3e PerCP-Cy5.5 (Tonbo Biosciences, 145-2C11), CD4a APC-Cy7 (Tonbo Biosciences, RM4-5) and CD8a PE-Cy7 (Tonbo Biosciences, 53–6.7) and viability stain (Ghost 510, Tonbo Biosciences). Cells were treated with cytofix/cytoperm (BD) and stained with anti-IFNγ PE-CF594 (BD, XMG1.2), anti-IL2 FITC (Biolegend, JES6-5H4), anti-IL-5 PE (BD, TRFK5), anti-IL17A BV421 (Biolegend, TC11-18H10.1), and anti-TNFα APC (Invitrogen, MP6-XT22). Data was collected using an LSRII flow cytometer (BD) and analyzed using FlowJo 10.0 software (TreeStar). Splenocytes were gated on live, single cells, then CD3+ to identify all T cells, then gated as CD4+CD8- to identify CD4 T cells or CD4-CD8+ to identify CD8 T cells. Gates for intracellular cytokine positive CD4 or CD8 T cells are set based on re-stimulation of naïve splenocytes. Gating strategies for the detection of antigen specific CD4+ and CD8+ T cells are outlined in Supplemental Figure 3.
Figure 7 Induction of IL-17 producing CD4+ and CD8+ T cells from an αTDE adjuvanted M72 vaccine. BALB/c mice, 10 per group, were immunized two times i.m. with 0.125 μg antigen plus 2, 10, or 50 nmol of the indicated adjuvant. Spleens were harvested from a subset of 3 mice per group at 5 days post-secondary vaccination. Splenocytes were restimulated with 1 μg/mL whole antigen and transport inhibitors followed by surface staining for CD3, CD4, and CD8 and then intracellular cytokine staining. Data represent percentage of live, CD3^+/CD4^+, left, or CD3^+/CD8^+, right, cells that are also positive for IL-17A upon stimulation.
Figure 8 B16 liposomes biases a Th17/Th2 adaptive immune response. BALB/c mice, 14 per group, were immunized twice, 14 days apart, i.m with 0.1, 1, or 10 μg of M72 antigen plus either blank DDA:DSPC liposome or B16 loaded (10 nmol final dose) liposome. (A,B) M72-specific serum antibody titers at 14 days post-secondary vaccination. (C–F) Spleens were harvested from mice at 5 days post-secondary vaccination and restimulated with 1 μg/mL whole antigen and transport inhibitors followed by surface staining for CD3, CD4, and CD8 and then intracellular cytokine staining. (C) Percent of live, CD3^+/CD4^+/IL5+ cells, (D) Percent of live, CD3^+/CD8^+/IFNγ+ cells, (E) Percent of live, CD3^+/CD4^+/IL17+ cells, and (F) Percent of live, CD3^+/CD8^+/IL17+ cells. ^*p < 0.05, ^**p < 0.01, ^****p < 0.001.
Supplemental Figure 10. Production of IFNɣ, IL-2, IL-5 or TNFα by CD4 or CD8 T cells in response to various CLR compounds. […]

## CCCCCCCCCCCCCCCCCCCCCC(=O)OC[C@H]1O[C@H](O[C@H]2O[C@H](COC(=O)CCCCCCCCCCCCCCCCCCCCC)[C@@H](O)[C@H](O)[C@H]2O)[C@H](O)[C@@H](O)[C@@H]1O [TDB, trehalose dibehenate, reference compound]
  IL-17+ CD4+ and CD8+ T cells (Th17 response) after M72 re-stimulation: able to boost Th17
